Experimental data taken from the supplement of paper PMC9912026.

Tested on: A375_NRAS_Q61K_DOXind
Assay: pERK immunofluorescence relative to uninduced (no doxycycline), no-drug control; higher = more ERK phosphorylation (less pathway inhibition)
Settings: drug treatment time 24 h, doxycycline pre-induction time 24 h, vemurafenib background 0 µM
Experimental: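 pERK was measured by immunofluorescence with FLAG-negative cells excluded. Averages of 2 technical replicates.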

CCCS(=O)(=O)Nc1ccc(F)c(C(=O)c2c[nH]c3ncc(-c4ccc(Cl)cc4)cc23)c1F [Vemurafenib] + O=C(c1ccc(F)c(F)c1Nc1ccc(I)cc1F)N1CC(O)([C@@H]2CCCCN2)C1 [Cobimetinib]
pERK immunofluorescence
Settings | drug B concentration 0 µM | drug B concentration 0.0001 µM | drug B concentration 0.0003162 µM | drug B concentration 0.001 µM | drug B concentration 0.00316228 µM | drug B concentration 0.01 µM | drug B concentration 0.0316228 µM | drug B concentration 0.1 µM | drug B concentration 0.316228 µM | drug B concentration 1 µM
drug A concentration 0.0316 µM, doxycycline 0 ng/mL | – | – | – | – | – | – | 0.0338 | 0.0248 | 0.0205 | 0.0197
drug A concentration 0.0316 µM, doxycycline 1000 ng/mL | – | – | – | – | – | 0.964 | 0.683 | 0.254 | 0.0677 | 0.0258
drug A concentration 0.1 µM, doxycycline 0 ng/mL | 0.316 | 0.286 | 0.274 | 0.161 | 0.0758 | 0.0428 | 0.0306 | 0.0226 | 0.0207 | 0.0198
drug A concentration 0.1 µM, doxycycline 1000 ng/mL | 1.2 | 1.18 | 1.31 | 1.21 | 1.12 | 1.05 | 0.766 | 0.294 | 0.0731 | 0.0266
drug A concentration 0.316228 µM, doxycycline 0 ng/mL | 0.107 | 0.0916 | 0.1 | 0.0715 | 0.0458 | 0.0352 | 0.0271 | 0.0216 | 0.0197 | 0.019
drug A concentration 0.316228 µM, doxycycline 1000 ng/mL | 1.17 | 1.21 | 1.26 | 1.25 | 1.15 | 1.08 | 0.736 | 0.279 | 0.069 | 0.0251
drug A concentration 1 µM, doxycycline 0 ng/mL | 0.0542 | 0.0554 | 0.0566 | 0.0507 | 0.0389 | 0.0323 | 0.0252 | 0.0202 | 0.019 | 0.0186
drug A concentration 1 µM, doxycycline 1000 ng/mL | 1.12 | 1.21 | 1.32 | 1.26 | 1.15 | 1.06 | 0.675 | 0.212 | 0.0608 | 0.0248
drug A concentration 3.16 µM, doxycycline 0 ng/mL | 0.0469 | 0.0457 | 0.0485 | 0.044 | 0.038 | 0.0293 | 0.0233 | 0.02 | 0.0191 | 0.0188
drug A concentration 3.16 µM, doxycycline 1000 ng/mL | 1.07 | 1.14 | 1.22 | 1.27 | 1.12 | 0.941 | 0.478 | 0.129 | 0.0468 | 0.0219
drug A concentration 10 µM, doxycycline 0 ng/mL | 0.0377 | 0.0388 | 0.0357 | 0.0351 | 0.0307 | 0.0237 | 0.0219 | 0.0199 | 0.019 | 0.0193
drug A concentration 10 µM, doxycycline 1000 ng/mL | 0.905 | 1.01 | 1.04 | 1.02 | 0.868 | 0.553 | 0.145 | 0.0465 | 0.0237 | 0.0194
